Data from patent US20210198277A1, “AMINE-SUBSTITUTED ARYL OR HETEROARYL COMPOUNDS” (Epizyme, Inc., priority 2016, published 2021).

Target: T1, EHMT1 (Homo sapiens, UniProt Q9H9B1)
T1 sequence (Q9H9B1 1-1298): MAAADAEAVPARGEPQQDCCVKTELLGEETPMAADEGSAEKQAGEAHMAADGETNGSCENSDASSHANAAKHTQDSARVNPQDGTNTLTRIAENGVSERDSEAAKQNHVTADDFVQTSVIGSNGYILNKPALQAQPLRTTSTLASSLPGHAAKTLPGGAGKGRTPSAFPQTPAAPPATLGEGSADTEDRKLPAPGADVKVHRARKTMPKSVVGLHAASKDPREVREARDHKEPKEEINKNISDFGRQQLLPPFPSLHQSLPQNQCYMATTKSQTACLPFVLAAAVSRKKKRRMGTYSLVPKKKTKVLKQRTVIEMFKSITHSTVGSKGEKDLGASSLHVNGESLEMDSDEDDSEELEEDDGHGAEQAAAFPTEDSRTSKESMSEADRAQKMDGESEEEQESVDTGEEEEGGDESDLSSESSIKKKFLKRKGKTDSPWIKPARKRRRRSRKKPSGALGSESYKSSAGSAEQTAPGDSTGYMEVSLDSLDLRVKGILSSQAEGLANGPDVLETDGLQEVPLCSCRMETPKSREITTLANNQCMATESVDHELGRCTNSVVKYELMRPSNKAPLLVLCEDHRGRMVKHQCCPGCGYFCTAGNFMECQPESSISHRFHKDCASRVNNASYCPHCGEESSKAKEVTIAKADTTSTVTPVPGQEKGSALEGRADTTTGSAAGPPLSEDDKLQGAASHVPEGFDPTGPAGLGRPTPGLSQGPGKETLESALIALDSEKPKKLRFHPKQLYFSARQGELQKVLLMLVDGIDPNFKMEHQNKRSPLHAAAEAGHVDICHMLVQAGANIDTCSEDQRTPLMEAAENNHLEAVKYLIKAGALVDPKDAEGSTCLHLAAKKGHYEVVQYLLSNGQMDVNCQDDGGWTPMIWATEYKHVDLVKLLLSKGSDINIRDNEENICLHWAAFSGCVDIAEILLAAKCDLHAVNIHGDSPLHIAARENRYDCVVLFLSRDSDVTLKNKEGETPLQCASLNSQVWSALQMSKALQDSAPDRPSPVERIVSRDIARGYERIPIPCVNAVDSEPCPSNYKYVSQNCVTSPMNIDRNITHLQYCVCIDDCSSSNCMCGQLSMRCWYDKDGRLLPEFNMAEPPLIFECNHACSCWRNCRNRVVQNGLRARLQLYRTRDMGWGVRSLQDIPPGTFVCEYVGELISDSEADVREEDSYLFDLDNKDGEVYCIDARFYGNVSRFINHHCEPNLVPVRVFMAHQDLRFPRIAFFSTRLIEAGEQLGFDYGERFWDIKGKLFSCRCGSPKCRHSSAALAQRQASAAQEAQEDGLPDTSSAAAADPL
Test: EHMT1 enzyme assay on peptide substrate (EHMT1 PEP)
Type: biochemical
Conditions: Table II; read-out: EHMT1 PEP (IC50 μM)

| IC50 [µM] | SMILES |
| --- | --- |
| < 0.1 | CNc1ccnc(Nc2ccc(OC)c(OCCCN3CCCC3)c2)n1 [Compound 1, N^2-(4-methoxy-3-(3-(pyrrolidin-1-yl)propoxy)phenyl)-N^4-methylpyrimidine-2,4-diamine] |
| < 0.1 | COc1ccc(Nc2nccc(NCC3CCN(CC(F)F)CC3)n2)cc1OCCCN1CCCC1 [Compound 2, N^4-((1-(2,2-difluoroethyl)piperidin-4-yl)methyl)-N^2-(4-methoxy-3-(3-(pyrrolidin-1-yl)propoxy)phenyl)pyrimidine-2,4-diamine] |
| < 0.1 | COc1ccc(Nc2nccc(NCC3CCOCC3)n2)cc1OCCCN1CCCC1 [Compound 3, N^2-(4-methoxy-3-(3-(pyrrolidin-1-yl)propoxy)phenyl)-N^4-((tetrahydro-2H-pyran-4-yl)methyl)pyrimidine-2,4-diamine] |
| 0.1 to 1 | COc1ccc(Nc2nccc(NCC3CCN(CC(F)(F)F)CC3)n2)cc1OCCCN1CCCC1 [Compound 4, N^2-(4-methoxy-3-(3-(pyrrolidin-1-yl)propoxy)phenyl)-N^4-((1-(2,2,2-trifluoroethyl)piperidin-4-yl)methyl)pyrimidine-2,4-diamine] |
| 0.1 to 1 | COc1ccc(Nc2nccc(NC3CCOCC3)n2)cc1OCCCN1CCCC1 [Compound 5, N^2-(4-methoxy-3-(3-(pyrrolidin-1-yl)propoxy)phenyl)-N^4-(tetrahydro-2H-pyran-4-yl)pyrimidine-2,4-diamine] |
| 0.1 to 1 | COc1ccc(Nc2nccc(NCC(=O)N3CCOCC3)n2)cc1OCCCN1CCCC1 [Compound 51] |
| 1 to 10 | COc1ccc(Nc2nccc(NCC(=O)N(C)c3ccccc3)n2)cc1OCCCN1CCCC1 [Compound 52] |
| 1 to 10 | COc1ccc(Nc2nccc(N3Cc4cn[nH]c4C3)n2)cc1OCCCN1CCCC1 [Compound 53] |
| 0.1 to 1 | COc1ccc(Nc2nccc(NC3CCN(C(C)=O)CC3)n2)cc1OCCCN1CCCC1 [Compound 54] |
| 0.1 to 1 | COc1ccc(Nc2ncc(C)c(NCC3CCN(C(C)=O)CC3)n2)cc1OCCCN1CCCC1 [Compound 55] |
| 1 to 10 | COc1ccc(Nc2nccc(N(C)Cc3ccncc3)n2)cc1OCCCN1CCCC1 [Compound 56] |
| 1 to 10 | COc1ccc(Nc2nccc(NCC3CCN(C(C)=O)CC3)n2)cc1COCCN1CC(F)C1 [Compound 57] |
| 0.1 to 1 | c1cc(Nc2nccc(NCC3CCNCC3)n2)cc(OCCCN2CCCC2)c1 [Compound 88] |
| < 0.1 | COc1ccc(Nc2nccc(NCC3CCNCC3)n2)cc1OCCCN1CCCC1 [Compound 90] |

Same assay, conditions: Table III; read-out: EHMT1 PEP (IC50 μM)

| SMILES | IC50 [µM] |
| --- | --- |
| CNc1cc(OC)nc(Nc2ccc(OC)c(OCCCN3CCCC3)c2)n1 [Compound 261, 6-methoxy-N^2-(4-methoxy-3-(3-(pyrrolidin-1-yl)propoxy)phenyl)-N^4-methylpyrimidine-2,4-diamine] | > 10 |
| CNc1ccnc(Nc2ccc3c(c2)C(=O)N(CCN2CCCC2)CC3)n1 [Compound 264, 7-((4-(methylamino)pyrimidin-2-yl)amino)-2-(2-(pyrrolidin-1-yl)ethyl)-3,4-dihydroisoquinolin-1(2H)-one] | > 10 |
| COc1ccc(Nc2cccc3[nH]ccc23)cc1OCCCN1CCCC1 [Compound 265, N-(4-methoxy-3-(3-(pyrrolidin-1-yl)propoxy)phenyl)-1H-indol-4-amine] | > 10 |
| COc1ccc(Nc2nccc3[nH]ccc23)cc1OCCCN1CCCC1 [Compound 266, N-(4-methoxy-3-(3-(pyrrolidin-1-yl)propoxy)phenyl)-1H-pyrrolo[3,2-c]pyridin-4-amine] | 1 to 10 |
| CNc1nccc(Nc2ccc(OC)c(OCCCN3CCCC3)c2)n1 [Compound 355] | < 0.1 |
| CNc1cc(C)nc(Nc2ccc(F)c(OCCCN3CCCC3)c2)n1 [Compound 356] | > 10 |
| CNc1nc(Nc2ccc(OC)c(OCCCN3CCCC3)c2)ncc1C#N [Compound 357] | > 10 |
| CNc1nc(Nc2ccc(OC)c(OCCCN3CCCC3)c2)ncc1C(F)(F)F [Compound 358] | > 10 |
| CNc1ncc(C(F)(F)F)c(Nc2ccc(OC)c(OCCCN3CCCC3)c2)n1 [Compound 359] | > 10 |
| CNc1nc(Nc2ccc(OC)c(OCCCN3CCCC3)c2)nc(C)c1F [Compound 360] | 0.1 to 1 |

Now from value to compound:

| IC50 [µM] | SMILES |
| --- | --- |
| 1 to 10 | CNc1ccnc(Nc2ccc(OC)c(OC[C@H](O)CN3CCCC3)c2)n1 (single isomer, unassigned) [Compound 376] |
| > 10 | CNc1ccnc(Nc2ccc(OC)c(OC[C@@H](O)CN3CCCC3)c2)n1 (single isomer, unassigned) [Compound 377] |
| 0.1 to 1 | CNc1ccnc(Nc2ccc(OC)c(OCC3CCN(C)C3)c2)n1 (single isomer, unassigned) [Compound 415] |
| < 0.1 | CNc1ccnc(Nc2ccc(OC)c(OCC3CCN(C)C3)c2)n1 (single isomer, unassigned) [Compound 416] |
| 0.1 to 1 | CNc1cc(C)nc(Nc2ccc(OC)c(OCC3CCN(C)C3)c2)n1 (single isomer, unassigned) [Compound 417] |
| < 0.1 | CNc1cc(C)nc(Nc2ccc(OC)c(OCC3CCN(C)C3)c2)n1 (single isomer, unassigned) [Compound 418] |
| 1 to 10 | CNc1ccnc(Nc2ccc(OC)c(OCCN3CCOCC3)c2)n1 [Compound 361] |
| > 10 | CNc1cc(C(F)(F)F)nc(Nc2ccc(OC)c(OCCCN3CCCC3)c2)n1 [Compound 362] |
| > 10 | CNc1ccnc(Nc2ccc3c(c2)N(C(=O)CCN(C)C)CC3)n1 [Compound 363] |
| < 0.1 | CCc1cc(NC)nc(Nc2ccc(OC)c(OCCCN3CCCC3)c2)n1 [Compound 364] |
| > 10 | COc1ccc(Nc2nccc(CNC3CCOCC3)n2)cc1OCCCNc1ccccc1 [Compound 365] |
| 1 to 10 | COc1ccc(Nc2cnnc(NCC3CCN(C(C)=O)CC3)c2)cc1OCCCN1CCCC1 [Compound 366] |
| > 10 | COc1ccc(Nc2nccc(NCC3CCOCC3)n2)cc1OC1CC2(C1)CN(C)C2 [Compound 367] |
| > 10 | CNc1ccnc(Nc2ccc(F)c(OCCCN3CCCC3)c2)n1 [Compound 368] |
| 0.1 to 1 | COc1ccc(Nc2nccc(N)n2)cc1OCCCN1CCCC1 [Compound 369] |
| 0.1 to 1 | CNc1cnnc(Nc2ccc(OC)c(OCCCN3CCCC3)c2)c1 [Compound 370] |
| 1 to 10 | CNc1cncc(Nc2ccc(OC)c(OCCCN3CCCC3)c2)n1 [Compound 371] |

| IC50 [µM] | SMILES |
| --- | --- |
| < 0.1 | CNc1cc(Nc2cc(OCCCN3CCCC3)c(OC)cn2)ccn1 [Compound 372] |
| > 10 | COc1ccc(Nc2nccc3[nH]ncc23)cc1OCCCN1CCCC1 [Compound 373] |
| 1 to 10 | COc1ccc(Nc2ccnc3[nH]ccc23)cc1OCCCN1CCCC1 [Compound 374] |
| > 10 | CC(C)Nc1ccnc(Nc2cccc(OCCCN3CC[C@@H](F)C3)c2)n1 [Compound 375] |
| 0.1 to 1 | COc1ccc(Nc2nccc(NC(C)C3CCOCC3)n2)cc1OCCCN1CCCC1 (stereo not shown) [Compound 378] |
| 1 to 10 | CNc1ccnc(Nc2ccc(OC)c(OCCCN3CCCC3)c2)c1 [Compound 379] |
| > 10 | CNc1ccnc(Nc2ccc3ccn(CCN4CCCC4)c(=O)c3c2)n1 [Compound 381] |
| 0.1 to 1 | CNc1ccnc(Nc2ccc(OC)c(COCCN3CCCC3)c2)n1 [Compound 382] |
| 1 to 10 | CNc1ccnc(Nc2cccc(COCCN3CCCC3)c2)n1 [Compound 383] |
| > 10 | CNc1cc(C#N)nc(Nc2ccc(OC)c(OCCCN3CCCC3)c2)n1 [Compound 384] |
| 0.1 to 1 | CCc1cc(NC)nc(Nc2ccc(OC)c(OCCCN3CC[C@@H](F)C3)c2)n1 [Compound 385] |
| > 10 | CNc1ccnc(Nc2ccc3cnn(CCN(C)C)c3c2)n1 [Compound 386] |
| < 0.1 | CNc1ccnc(Nc2ccc(OC)c(OCCCN(C)C)c2)n1 [Compound 387] |
| > 10 | CNc1ccnc(Nc2ccc3cnn(CCCN(C)C)c3c2)n1 [Compound 388, N^2-(1-(3-(dimethylamino)propyl)-1H-indazol-6-yl)-N^4-methylpyrimidine-2,4-diamine] |
| > 10 | CNc1ccnc(Nc2ccc3c(C)nn(CCCN(C)C)c3c2)n1 [Compound 389] |
| 0.1 to 1 | CNc1ccnc(Nc2ccc(OC)c(OCCCN3CCCCC3)c2)n1 [Compound 390] |
| 0.1 to 1 | CNc1cc(C)nc(Nc2cccc(OCCCN3CCCC3)c2)n1 [Compound 391] |
